How the values were obtained:
[1] = tested on: C. albicans strain SC5314 biofilm; experiment: XTT metabolic assay of C. albicans biofilm; type: cell-based, Candida albicans; conditions: for XTT result, Mean (MeOH control = 1) / Absorbance at 492 nm, Mean (XTT): C. albicans biofilm; for Absorbance at 492 nm, Mean (XTT): test compound 100 μM, 24 hr, MeOH control 0.647, untreated 0.851; for effectiveness against fungal biofilms formed by Candida albicans (in words): summary statement
Procedure: C. albicans strain SC5314 was sub-cultured from 15% (v/v) glycerol stocks at −80° C. onto Yeast Peptone Dextrose (YPD) medium [1% (w/v) yeast extract, 2% (w/v) peptone and 2% (w/v) dextrose] and incubated at 30° C. overnight.
The test compounds in desiccated form were re-suspended in Methanol to create a 10 mM stock. […]
The ability of some of the compounds detailed in example 1 to disrupt Candida albicans was tested using Confocal Scanning Laser Microscopy and an XTT Metabolic Assay. The XTT assay is a commonly used quantitative method assessing Candida biofilm mass and growth often in response to novel drug therapies.
C. albicans biofilm formation was carried out in 96 well plates by a method of the prior art. Briefly, C. albicans was inoculated into Yeast Nitrogen Base [10% (w/v)] and glucose/maltose [10% (w/v)] and incubated overnight at 30° C. Seeding densities for all subsequent experiments (N=3) were OD600=0.05. Cells were grown in Yeast Nitrogen Base supplemented with 1 M Phosphate buffer and acetyl-D-glucosamine (YNB-NP) along with appropriate volumes of test compound to provide the desired concentration. Cells were cultured in 96 well plates for 1 hr at 37° C. to facilitate yeast attachment. After this incubation, the supernatants were aspirated, the wells washed twice with YNB-NP media, and fresh media with the same concentration of test compound added to the appropriate wells. The plate was incubated for 24 hr at 37° C. The next day, the cultures were aspirated and the wells washed once with YNB-NP media.
C. albicans biofilm quantification was carried out in 96 well plates using a semi-quantitative Tetrazolium salt, 2,3-bis-(2-methoxy-4-nitro-5-sulfophenyl)-2H tetrazolium-5-carboxanilide inner salt (XTT) reduction assay (Hawser, Tunney et al, Antimicrob Agents Chemother. 2004 May; 48(5):1879-81). XTT (0.01 g) was dissolved in sterile water (20 ml) and filter sterilized. 10 μl of Menadione dissolved in Acetone was added to the XTT solution, just before use. The XTT-Menadione Solution (100 μl) was added to each well. The plate was incubated in the dark at 37° C. for up to 2 hr to allow for colour development. The OD492 nm was recorded for each well. Experiments were repeated at least three times, with at least eight technical replicates.
Experiments were first carried out using the test compound at concentration of 100 μM.

[2] = tested on: IB3 lung epithelial cells; experiment: LDH release cytotoxicity, IB3-1 cells; type: cell-based; conditions: 100 μM, 16 hr, percentage of 0.1% Triton (100% cytotoxicity), MeOH 3.844
Procedure: (§1) Lactate dehydrogenase (LDH) release from IB3 lung epithelial cells was assayed as a measure of cytotoxicity using an LDH colorimetric kit (Roche) according to manufacturers' instructions. Briefly, IB3-1 cells were seeded onto 96 well plates and treated with methanol (control) and test compounds (100 μM). Following 16 hr incubation at 37° C. and 5% CO2, supernatants were removed and added to catalyst reaction mixture in a fresh plate and further incubated at 37° C. and 5% CO2 for 30 mins to allow for colour development. After this period, the plate was analysed on an ELISA plate reader at OD490 nm. Cytotoxicity was expressed as a percentage of cells treated with 0.1% (v/v) Triton (100% cytotoxicity).

[3] = tested on: DU145; experiment: LDH release cytotoxicity, DU145; type: cell-based; conditions: DU145 cell line; percentage of 0.1% Triton
Procedure: as §1, with “cytotoxicity). The results are detailed in table 3:” for “cytotoxicity).”
(§2) The above experiments were repeated, testing some compounds against further cell lines (A549, DU145 and HeLa).

[4] = tested on: P. aeruginosa PAO1 pqsA-pqsA-lacZ strain; experiment: Phenazine extraction (phenazine production); type: cell-based; conditions: PAO1 pqsA-pqsA-lacZ strain, test compounds 10 μM, 24 hr; methanol control 0.080
Procedure: (§3) P. aeruginosa strains, PAO1 and pqsA mutant, containing the chromosomally inserted pqsA-lacZ promoter fusion on plasmid pUC18-mini-Tn7, were sub-cultured from glycerol stocks onto LB agar plates, supplemented with Carbenicillin (200 μg/ml) and X-gal (40 μg/ml), and incubated at 37° C. overnight. Single colonies were inoculated into LB broth (20 ml), supplemented with Carbenicillin (200 μg/ml), and incubated at 37° C., shaking at 180 rpm overnight. For subsequent experiments, the OD600 nm was recorded and a starting OD600 nm of 0.02 was inoculated into fresh LB broth, supplemented with Carbenicillin (200 μg/ml) and incubated at 37° C., shaking at 180 rpm.
(§4) P. aeruginosa strains were cultured as described above for 24 hr, with the addition of test compounds (10 μM). Cultures were centrifuged at 4000 rpm for 10 minutes and the cell free supernatant (5 ml) removed. Chloroform (3 ml) was added, and mixed by vortex. After centrifugation at 4000 rpm for 5 mins, the lower aqueous phase was transferred to 0.2 M HCl (2 ml). Samples were mixed by vortex and centrifuged at 4000 rpm for 5 mins to separate the phases. An aliquot of the top phase (1 ml) was removed and spectrophotmetrically analysed at OD570 nm. Phenazine production was calculated using the following formula: OD570 nm×2×17.072 and the units expressed in μg/ml.
(§5) The phenazine production levels and Miller units in the PAO1 pqsA-pqsA-lacZ strain are detailed in table 5.
(§6) The virulence of compounds B2, C13 and C15 towards P. aeruginosa was assessed using an analogous method.

[5] = tested on: pqsA-lacZ promoter fusion; experiment: Promoter fusion based expression analysis (pqsA-lacZ, Miller units); type: cell-based, P. aeruginosa; conditions: PAO1 pqsA-pqsA-lacZ strain, 100 μM, overnight; methanol control 12287
Procedure: as §3
Promoter fusion analyses were performed in a 96-well format. Briefly, overnight cultures of wild-type PAO1 pqsA-lacZ (pLP0996) and mutant strain PAO1 pqsA^− pqsA-LacZ were diluted to OD600 nm=0.02 in LB. Test compounds at 100 μM final concentration were added, mixed, aliquoted into 96 well plates and incubated overnight at 37° C. with shaking. The next day, OD600 nm values were recorded in a plate reader. Aliquots of cells (0.02 ml) were permeabilised [100 mM dibasic sodium phosphate (Na2HPO4), 20 mM KCl, 2 mM MgSO4, 0.8 mg/mL CTAB (hexadecyltrimethylammonium bromide), 0.4 mg/mL sodium deoxycholate, 5.4 μL/mL beta-mercaptoethanol] and added to substrate solution [60 mM Na2HPO4, 40 mM NaH2PO4, 1 mg/mL o-nitrophenyl-β-D-Galactoside (ONPG), 2.7 μL/mL β-mercaptoethanol]. The kinetics of colour development was monitored and the reactions were stopped using 1M NaCO3. OD420 nm were recorded as above. Miller units were calculated using the following equation; 1000×[OD420 nm/(OD600 nm)×0.02 ml×reaction time (mins)].
as §5, §6

[6] = tested on: Pseudomonus aeruginosa; experiment: Virulence of Pseudomonas aeruginosa (summary statement); type: cell-based; conditions: unlike HHQ and PQS
Procedure: The virulence of compounds B1, B2, C2, C3, C4, C5, C6, C8 and C11 towards P. aeruginosa was assessed using the following method:
as §4, with “μg/ml. […]” for “μg/ml.”

[7] = tested on: mammalian cells; experiment: Cytotoxicity towards mammalian cells (summary statement); type: cell-based
Procedure: as §1, with “cytotoxicity). The results are detailed in table 3:” for “cytotoxicity).”
as §2

[8] = tested on: A. fumigatus Af293 biofilm; experiment: A. fumigatus biofilm assay (crystal violet); type: cell-based, Aspergillus fumigatus
Procedure: A. fumigatus Af293 was routinely grown on Sabouraud dextrose agar (SDA) in 100 ml cell culture flasks at 37° C. for 3-4 days until a lawn of fungal growth was observed.
(§7) A. fumigatus Af293 was grown on SDA in 100 ml cell culture flasks at 37° C. for 3-4 days. Conidia were harvested by flooding the surface of the agar plates with 5 ml PBS (Oxoid) containing 0.025% (v/v) Tween 20 and gently moving the liquid over the surface of the fungal lawn. The conidial suspension was transferred into a 25 ml sterile container and conidia were counted using a Neubauer haemocytometer and light microscope. Conidia were adjusted to the required concentration in RPMI 1640 (Sigma) buffered to pH 7.0 with 0.165 M MOPS immediately prior to biofilm formation analysis.
(§8) To assess biofilm formation, counted A. fumigatus spores (1×10^5) in MOPS buffered RPMI 1640 were inoculated into 24- and 96-well plates and grown overnight in the presence of 100 μM HHQ, PQS and the test compounds. After 24 hrs, the media was removed and the biofilm washed twice with distilled water after which 0.1% crystal violet (CV) was added to each well and allowed to stand for 1 hr at room temperature. The crystal violet was removed and all wells washed in a water bath by inversion. Ethanol was added to each well to solubilise biofilms after which samples were read on a spectrophotometer at Abs595 nm.

[9] = tested on: A. fumigatus CFBRC1 biofilm; experiment: A. fumigatus biofilm assay, clinical source CFBRC1; type: cell-based, Aspergillus fumigatus; conditions: biofilm from clinical source CFBRC1
Procedure: as §7, §8
(§9) The above experiments were carried out using biofilms grown from laboratory sources of A. fumigatus. The experiments were repeated to test some compounds against biofilms grown from three different clinical sources of A. fumigatus (CFBRC1, CFBRC2 and CFBRC3. The results are shown in table 8: […]

[10] = tested on: A. fumigatus CFBRC2 biofilm; experiment: A. fumigatus biofilm assay, clinical source CFBRC2; type: cell-based, Aspergillus fumigatus; conditions: biofilm from clinical source CFBRC2
Procedure: as §7, §8, §9

[11] = tested on: A. fumigatus CFBRC3 biofilm; experiment: A. fumigatus biofilm assay, clinical source CFBRC3; type: cell-based, Aspergillus fumigatus; conditions: biofilm from clinical source CFBRC3
Procedure: as §7, §8, §9

SMILES	XTT result, Mean (MeOH control = 1) ([1]; 10 μM)	XTT result, Mean (MeOH control = 1) ([1]; 50 μM)	XTT result, Mean (MeOH control = 1) ([1]; 100 μM)	Absorbance at 492 nm, Mean (XTT) [1]	effectiveness against fungal biofilms formed by Candida albicans (in words) [1]	% Cytotoxicity, Mean (LDH release) [2]	Cytotoxicity, Mean (LDH release) [3]	Phenazine, Mean [4]	Miller Units, Mean [5]	effect on virulence of Pseudomonus aeruginosa (in words) [6]	cytotoxicity towards mammalian cells (in words) [7]	Relative absorbance at 595 nm compared to methanol control, Mean ([8]; A. fumigatus Af293 biofilm, 100 μM, 24 hrs, crystal violet)	effectiveness against fungal biofilms formed by Aspergillus fumigatus (in words) ([8]; summary statement)	Relative absorbance compared to MeOH (=1), Mean [9]	Relative absorbance compared to MeOH (=1), Mean [10]	Relative absorbance compared to MeOH (=1), Mean [11]
CCCCCCCc1cc(=O)c2cc(C)ccc2[nH]1 [Compound C3]	0.71	0.57	0.51	0.307	effective	23.77%	32.42%	0.774 µg/mL	18350 Miller Units	do not increase the virulence						
CCCCCCCn1c(=O)cc(O)c2ccccc21 [Compound C6]				0.336	effective	19.70%		0.011 µg/mL	16678 Miller Units	do not increase the virulence	reduced cytotoxicity					
CCCCCCCCCc1cc(=O)c2ccccc2[nH]1 [Compound C10]	0.58	0.50	0.53	0.419			31.7%			do not increase the virulence	reduced cytotoxicity	0.24	effective	0.772	0.567	0.670

— patent US10882826B2, “Quinolinone or quinazolinone comprising antibiofilm compositions, compounds and methods and uses relating thereto” (University College Cork—National University of Ireland, priority 2015, dated 2021)
